In patent publication US20120100135A1, “GENETIC POLYMORPHISMS ASSOCIATED WITH CLINICAL OUTCOMES OF TOPOISOMERASE INHIBITOR THERAPY FOR CANCER” (University of Southern California, priority 2009, published 2012):

System: mCRC patients
Assay: Phase III EPIC trial subgroup (US sites, 186 genotyped patients): IR/CB (arm A) vs IR alone (arm B), second line after failure of FOLFOX
Type: in vivo, human
Procedure: This study was to test functional germline polymorphisms involved in the EGFR—(EGF, EGFR), angiogenesis—(VEGF, IL-8, CXCR-2)—and drug-metabolism related genes (UGT1A1, MTHFR) for their potential role as molecular predictors for clinical outcome in patients treated with CB/IR vs. IR alone.
Material and Methods: DNA was extracted from all available formalin-fixed paraffin-embedded tumor samples from the phase III EPIC trial (US sites only). Genotyping was performed using PCR-RFLP assays and 5′-end [g-33P] ATP′ labeled PCR-protocols.
Results: 186 patients were treated either with IR/CB (arm A, 84 patients) or IR (arm B, 102 patients) only. […] It was found an EGFR-CA-repeat in intron I in arm A was associated with PFS (p=0.031, log-rank test) (Table 2). In arm A, a significant association with […] (RR) (p=0.0103, Fisher's exact test) for MTHFR 1298 was found (Table 3). […] Furthermore, MTHFR 677 and MTHFR 1298 was associated with OS (adjusted p=0.028 and 0.026, respectively, Cox-proportional hazards models), independent from K-ras mutation status, race and number of disease sites.

## CCc1c2c(nc3ccc(OC(=O)N4CCC(N5CCCCC5)CC4)cc13)-c1cc3c(c(=O)n1C2)COC(=O)[C@]3(O)CC [IR, Irinotecan]
95% CI
  Median PFS: 2.7 months
  median overall survival (OS): 12.3 months
Arm A n=84, arm B n=102
  patients showing CR or PR: 6%
  patients with SD or PD: 94%
